Test results published in patent US20010039286A1, “2-aryl indole derivatives and their use as therapeutic agents” (priority 2000, published 2001).

Work on `Cl.OC1(Cc2ccccc2)CCN(CCCc2c(-c3ccc(Cl)cc3)[nH]c3ccc(Cl)cc23)CC1` yielded a melting point of 147 to 150 °C.
